Test results from patent US7972814B2, “Antimicrobial polypeptides from Pseudoplectania nigrella” (Novozymes Adenivro Biotech A/S, priority 2001, dated 2011).

Experiments:
[1] = tested on: E. coli; assay: Growth inhibition of E. coli upon induction of endogenous Plectasin expression (suicide expression system); type: cell-based
Experimental: In order to evaluate whether E. coli was growth inhibited in liquid media upon induction of endogenous Plectasin expression, the following experiment was conducted as disclosed in the examples of international patent application WO 00/73433. Briefly, fresh overnight cultures of cells containing either pDRS-18-plectasin, pDR-18-plectasin, pHH or pHHA plasmid were diluted 300-fold into 150 micro liter of LB or LB containing 0.1% arabinose in a microtiter plate and incubated at 37 degrees Celsius with vigorous shaking. The growth curve was monitored by measuring OD450 at regular intervals using an ELISA reader.

[2] = tested on: Bacillus subtilis; assay: Antimicrobial activity by radial diffusion assay; type: cell-based
Experimental: A modified version of a previously published protocol has been applied in the detection of antimicrobial activity (Lehrer et al., (1991) Ultrasensitive assays for endogenous antimicrobial polypeptides J Immunol Methods 137: 167-173). Target bacteria (10^6 colony forming units (CFU)) were added to 10 ml of underlay agarose (1% low electro-endosmosis agarose, 0.03% Trypticase soy broth, 10 mM sodium phosphat, pH 7.4, 37 degrees Celsius). Suspension was solidified on an INTEGRID Petri Dish (Becton Dickinson Labware, N.J.). A 3 mm Gel Puncher was used to make holes in the underlay agarose (Amersham Pharmacia Biotech, Sweden). Samples were added to the holes and incubated at 37 degrees Celsius, 3 hours. An overlay was poured on top and the plate was incubated overnight (LB media, 7.5% Agar). Antimicrobial activity was seen as bacterial clearing zones around the wells. Living cells was counterstained by adding 10 ml, 0.2 mM MTT (3-(4,5-Dimethylthiazol-2-yl)-2,5-diphenyltetrazolium bromide Thiazolyl blue). All standard protocols has been described elsewhere (Sambrook, Fritsch, and Maniatis, 1989).
To evaluate the anti-microbial activity of Plectasin, fermentation broths of recombinant Aspergillus oryzae were applied in 2-fold serial dilutions in a radial diffusion assay (described above). […]
The supernatants described above were analyzed in a radial diffusion assay as described in Example 5. […]

Substance: Plectasin
- inhibition of cell growth ([1]; Plectasin directed to the periplasm): 41%
- effect on cell growth ([1]; Plectasin expressed in the cytoplasm): did not affect cell growth
- increase in antimicrobial activity of the peptide ([2]; produced in E. coli Origami-DE3 (inclusion bodies) versus the earlier E. coli host): 5-10 fold
- largest clearing zone ([2]; undiluted fermentation broth of recombinant Aspergillus oryzae): 15 mm
